pIC50: −log10 of the molar value.
Test system: 454973-116-R2-J3-PDC complex spheroid viability
Experiment: Anticancer human tumor 454973-116-R2-J3-PDC patient-derived pancreatic carcinoma cell line growth inhibition [POLQ]
Settings: for pIC50: curve of first compound; for viability, T/C: stronger effect = lower value
Method in brief: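 Growth inhibition in 3D: complex spheroids (tumor PDC, HUVEC, MSC) treated with POLQ inhibitor combinations; where Cmax unknown, highest tested concentration 10 microM, except SN-38 at 1 microM.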

[1] = second compound 0.0316 µM, first compound 0.0316 µM
[2] = second compound 0.0316 µM, first compound 0.1 µM
[3] = second compound 0.0316 µM, first compound 0.316 µM
[4] = second compound 0.0316 µM, first compound 1 µM
[5] = second compound 0.0316 µM, first compound 3.16 µM
[6] = second compound 0.0316 µM, first compound 10 µM
[7] = second compound 0.1 µM, first compound 0.0316 µM
[8] = second compound 0.1 µM, first compound 0.1 µM
[9] = second compound 0.1 µM, first compound 0.316 µM
[10] = second compound 0.1 µM, first compound 1 µM
[11] = second compound 0.1 µM, first compound 3.16 µM
[12] = second compound 0.1 µM, first compound 10 µM
[13] = second compound 0.316 µM, first compound 0.0316 µM
[14] = second compound 0.316 µM, first compound 0.1 µM
[15] = second compound 0.316 µM, first compound 0.316 µM
[16] = second compound 0.316 µM, first compound 1 µM
[17] = second compound 0.316 µM, first compound 3.16 µM
[18] = second compound 0.316 µM, first compound 10 µM
[19] = second compound 1 µM, first compound 0.0316 µM
[20] = second compound 1 µM, first compound 0.1 µM
[21] = second compound 1 µM, first compound 0.316 µM
[22] = second compound 1 µM, first compound 1 µM
[23] = second compound 1 µM, first compound 3.16 µM
[24] = second compound 1 µM, first compound 10 µM
[25] = second compound 3.16 µM, first compound 0.0316 µM
[26] = second compound 3.16 µM, first compound 0.1 µM
[27] = second compound 3.16 µM, first compound 0.316 µM
[28] = second compound 3.16 µM, first compound 1 µM
[29] = second compound 3.16 µM, first compound 3.16 µM
[30] = second compound 3.16 µM, first compound 10 µM
[31] = second compound 10 µM, first compound 0.0316 µM
[32] = second compound 10 µM, first compound 0.1 µM
[33] = second compound 10 µM, first compound 0.316 µM
[34] = second compound 10 µM, first compound 1 µM
[35] = second compound 10 µM, first compound 3.16 µM
[36] = second compound 10 µM, first compound 10 µM
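Further: spheroids exposed to drugs for seven days before measurement.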
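Wherever viability, T/C is given: percent viability relative to DMSO vehicle control wells taken as 100%.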

## CCc1cc2c(N3CCc4c(cc(Cn5ccnc5)cc4-c4cn(C)nc4C(F)(F)F)C3=O)cc(C)nc2c(OC)n1 + COC1C(OC(N)=O)C(O)C(Oc2ccc3c(O)c(NC(=O)c4ccc(O)c(CC=C(C)C)c4)c(=O)oc3c2C)OC1(C)C
Second compound 0.0316 µM
  pIC50: < 5.00
Second compound 0.1 µM
  pIC50: < 5.00
Second compound 0.316 µM
  pIC50: < 5.00
Second compound 1 µM
  pIC50: < 5.00
Second compound 3.16 µM
  pIC50: < 5.00
Second compound 10 µM
  pIC50: < 5.00
[1]
  viability, T/C: 111%
[2]
  viability, T/C: 93.7%
[3]
  viability, T/C: 91.5%
[4]
  viability, T/C: 87.9%
[5]
  viability, T/C: 87.2%
[6]
  viability, T/C: 75.1%
[7]
  viability, T/C: 94.1%
[8]
  viability, T/C: 107%
[9]
  viability, T/C: 95.2%
[10]
  viability, T/C: 91.2%
[11]
  viability, T/C: 81%
[12]
  viability, T/C: 71%
[13]
  viability, T/C: 101%
[14]
  viability, T/C: 103%
[15]
  viability, T/C: 91.8%
[16]
  viability, T/C: 94.1%
[17]
  viability, T/C: 83.6%
[18]
  viability, T/C: 73.2%
[19]
  viability, T/C: 110%
[20]
  viability, T/C: 95%
[21]
  viability, T/C: 105%
[22]
  viability, T/C: 98%
[23]
  viability, T/C: 84.7%
[24]
  viability, T/C: 76.3%
[25]
  viability, T/C: 109%
[26]
  viability, T/C: 102%
[27]
  viability, T/C: 93.9%
[28]
  viability, T/C: 88.2%
[29]
  viability, T/C: 85.9%
[30]
  viability, T/C: 70.3%
[31]
  viability, T/C: 103%
[32]
  viability, T/C: 90.5%
[33]
  viability, T/C: 89.6%
[34]
  viability, T/C: 85.3%
[35]
  viability, T/C: 84%
[36]
  viability, T/C: 67.6%

## COc1cc2cc(C(=O)CCC(=O)O)sc2cc1OC + COC1C(OC(N)=O)C(O)C(Oc2ccc3c(O)c(NC(=O)c4ccc(O)c(CC=C(C)C)c4)c(=O)oc3c2C)OC1(C)C
Second compound 0.0316 µM
  pIC50: < 5.00
Second compound 0.1 µM
  pIC50: < 5.00
Second compound 0.316 µM
  pIC50: < 5.00
Second compound 1 µM
  pIC50: < 5.00
Second compound 3.16 µM
  pIC50: < 5.00
Second compound 10 µM
  pIC50: < 5.00
[1]
  viability, T/C: 95.3%
[2]
  viability, T/C: 100%
[3]
  viability, T/C: 102%
[4]
  viability, T/C: 121%
[5]
  viability, T/C: 113%
[6]
  viability, T/C: 96%
[7]
  viability, T/C: 101%
[8]
  viability, T/C: 115%
[9]
  viability, T/C: 99.3%
[10]
  viability, T/C: 118%
[11]
  viability, T/C: 111%
[12]
  viability, T/C: 102%
[13]
  viability, T/C: 109%
[14]
  viability, T/C: 110%
[15]
  viability, T/C: 120%
[16]
  viability, T/C: 110%
[17]
  viability, T/C: 104%
[18]
  viability, T/C: 97.2%
[19]
  viability, T/C: 107%
[20]
  viability, T/C: 102%
[21]
  viability, T/C: 127%
[22]
  viability, T/C: 110%
[23]
  viability, T/C: 107%
[24]
  viability, T/C: 93.8%
[25]
  viability, T/C: 110%
[26]
  viability, T/C: 103%
[27]
  viability, T/C: 105%
[28]
  viability, T/C: 112%
[29]
  viability, T/C: 105%
[30]
  viability, T/C: 93%
[31]
  viability, T/C: 114%
[32]
  viability, T/C: 102%
[33]
  viability, T/C: 93.6%
[34]
  viability, T/C: 100%
[35]
  viability, T/C: 99.4%
[36]
  viability, T/C: 90.5%

## O=C(Nc1ccc(O)c(NS(=O)(=O)c2ccc(F)cc2)c1)c1ccc(-c2ccccc2)cc1 + COC1C(OC(N)=O)C(O)C(Oc2ccc3c(O)c(NC(=O)c4ccc(O)c(CC=C(C)C)c4)c(=O)oc3c2C)OC1(C)C
Second compound 0.0316 µM
  pIC50: < 5.00
Second compound 0.1 µM
  pIC50: < 5.00
Second compound 0.316 µM
  pIC50: < 5.00
Second compound 1 µM
  pIC50: < 5.00
Second compound 3.16 µM
  pIC50: < 5.00
Second compound 10 µM
  pIC50: < 5.00
[1]
  viability, T/C: 93%
[2]
  viability, T/C: 107%
[3]
  viability, T/C: 98.8%
[4]
  viability, T/C: 112%
[5]
  viability, T/C: 112%
[6]
  viability, T/C: 105%
[7]
  viability, T/C: 101%
[8]
  viability, T/C: 119%
[9]
  viability, T/C: 103%
[10]
  viability, T/C: 124%
[11]
  viability, T/C: 106%
[12]
  viability, T/C: 105%
[13]
  viability, T/C: 101%
[14]
  viability, T/C: 110%
[15]
  viability, T/C: 112%
[16]
  viability, T/C: 116%
[17]
  viability, T/C: 113%
[18]
  viability, T/C: 103%
[19]
  viability, T/C: 109%
[20]
  viability, T/C: 104%
[21]
  viability, T/C: 108%
[22]
  viability, T/C: 117%
[23]
  viability, T/C: 109%
[24]
  viability, T/C: 98.4%
[25]
  viability, T/C: 113%
[26]
  viability, T/C: 115%
[27]
  viability, T/C: 107%
[28]
  viability, T/C: 106%
[29]
  viability, T/C: 118%
[30]
  viability, T/C: 94.2%
[31]
  viability, T/C: 108%
[32]
  viability, T/C: 92.1%
[33]
  viability, T/C: 93.4%
[34]
  viability, T/C: 104%
[35]
  viability, T/C: 102%
[36]
  viability, T/C: 85.6%

## COc1cccc2c1C(=O)c1c(O)c3c(c(O)c1C2=O)CC(O)(C(=O)CO)CC3OC1CC(N)C(O)C(C)O1 (stereo not drawn) + Cc1cccc(N(C)C(=O)C2C(O)CCN2c2nc(C)cc(C(F)(F)F)c2C#N)c1
Second compound 0.0316 µM
  pIC50: 7.22
Second compound 0.1 µM
  pIC50: 7.20
Second compound 0.316 µM
  pIC50: 7.21
Second compound 1 µM
  pIC50: 7.22
Second compound 3.16 µM
  pIC50: 7.31
Second compound 10 µM
  pIC50: 7.26
[1]
  viability, T/C: 72.9%
[2]
  viability, T/C: 25.9%
[3]
  viability, T/C: 22.1%
[4]
  viability, T/C: 10.9%
[5]
  viability, T/C: 0.31%
[6]
  viability, T/C: 0.23%
[7]
  viability, T/C: 71.8%
[8]
  viability, T/C: 29.3%
[9]
  viability, T/C: 26.9%
[10]
  viability, T/C: 8.87%
[11]
  viability, T/C: 1.7%
[12]
  viability, T/C: 0.22%
[13]
  viability, T/C: 70.3%
[14]
  viability, T/C: 30.2%
[15]
  viability, T/C: 24.2%
[16]
  viability, T/C: 9.69%
[17]
  viability, T/C: 0.35%
[18]
  viability, T/C: 0.28%
[19]
  viability, T/C: 67.8%
[20]
  viability, T/C: 30.9%
[21]
  viability, T/C: 26.6%
[22]
  viability, T/C: 9.52%
[23]
  viability, T/C: 0.41%
[24]
  viability, T/C: 0.32%
[25]
  viability, T/C: 56.3%
[26]
  viability, T/C: 38.4%
[27]
  viability, T/C: 25.6%
[28]
  viability, T/C: 6.92%
[29]
  viability, T/C: 0.38%
[30]
  viability, T/C: 0.33%
[31]
  viability, T/C: 63.8%
[32]
  viability, T/C: 33%
[33]
  viability, T/C: 22%
[34]
  viability, T/C: 7.02%
[35]
  viability, T/C: 0.38%
[36]
  viability, T/C: 0.49%
